3 compounds from patent publication US8415391B2, “3.2.1-bicyclo-octene and -octane compounds” (International Flavors & Fragrances Inc., priority 2010, dated 2013) can be followed below.

The nature of series [1]: Mold/mildew malodor coverage, panel sniff test with proprietary malodor model. The arrangement: species or system human. To be noted: compound 10% in solvent; 1 h equilibration in 8 oz jar; 15-18 panelists; scale 1 (No Coverage) to 5 (Excellent Coverage). On the procedure:
(§1) It is known that the perspirative malodors of human body, particularly sweat, are associated with the production of several unpleasant smelling organic acids, particularly isovaleric acid (“IVA”). The commercial sample of this malodorous material (commercially available at Sigma-Aldrich Inc.) was thus used as a model compound to assess the effectiveness of sweat malodor counteractants. The mold/mildew malodor model was prepared based on applicant's proprietary formulations for assessing the effectiveness of mold/mildew malodor counteractants.
(§2) Two aluminum dishes were placed in an 8 oz glass jar. A malodor material was pipetted into one aluminum dish, and a compound of the present invention diluted in a solvent (10%) or a solvent alone control was pipetted into the other aluminum dish. The jar was then capped and the samples were allowed to equilibrate for one hour before the testing.
(§3) Test samples were presented in a blind and random order to 15-18 internal panelists (consisting of men/women with an age range of 25 to 55). However, different odor samples were arranged in an alternative order (for example, sweat, mold/mildew, sweat, mold/mildew, and etc.).
(§4) The panelists were instructed to take the steps of i) sniff jars containing only the malodor materials for familiarization prior to the testing; ii) uncap a jar; iii) place their noses at a distance of about 3-4 inches above the opening; iv) take short sniffs for 3 seconds; and v) provide a rank of the malodor coverage using an intensity scale of 1 to 5, where 1 represents “No Coverage”, 3 represents “Moderate Coverage”, and 5 represents “Excellent Coverage”. The means for each sample was then calculated.

The nature of series [2]: Sweat malodor coverage, panel sniff test with isovaleric acid model. The arrangement: species or system human. To be noted: compound 10% in solvent; 1 h equilibration in 8 oz jar; 15-18 panelists; scale 1 (No Coverage) to 5 (Excellent Coverage). On the procedure:
as §1, §2, §3, §4

Another series is described as follows: Vapor pressure. The series is classed as physicochemical.

On to `CC1=CCC2(C)CCC1C2` (stereo not drawn) [Structure I, 2,5-dimethyl-bicyclo[3.2.1]oct-2-ene], for which the “Mold/Mildew Malodor, mean rank of malodor coverage” value (“Mold/Mildew Malodor, mean rank” for short) in series [1] is given as 3.32. Moreover, the “Sweat Malodor, mean rank of malodor coverage” value (shortened to “Sweat Malodor, mean rank”) in series [2] was 3.90. The “Vapor Pressure” value in “Vapor pressure” was 28652 µg/L.

As for `CC(=O)OC1CC2(C)CCC(C2)C1C` (stereo not drawn) [Structure IV, acetic acid 1,4-dimethyl-bicyclo[3.2.1]oct-3-yl ester], in series [1], the “Mold/Mildew Malodor, mean rank” value worked out at 2.96. For the same compound, the “Sweat Malodor, mean rank” value in series [2] worked out at 3.09. Moreover, the “Vapor Pressure” value in the series “Vapor pressure” is 1091 µg/L.

Take `COC(=O)OC1CC2(C)CCC(C2)C1C` (stereo not drawn) [Structure V, carbonic acid 1,4-dimethyl-bicyclo[3.2.1]oct-3-yl ester methyl ester]: the “Mold/Mildew Malodor, mean rank” value in series [1] is 2.49. Besides, in series [2], the “Sweat Malodor, mean rank” value is 2.42. Moreover, the “Vapor Pressure” value in the series “Vapor pressure” is 406 µg/L.
